Results published in patent publication US20020045780A1, “Biologically active spermidine analogues, pharmaceutical compositions and methods of treatment” (priority 1997, published 2002).
Where a name gives a salt, the structure may show the parent alone. Read-outs that look alike come from different tables or passages of the source.

How the values were obtained:
[1] = tested on: spermidine/spermine acetyltransferase (SSAT); assay: SSAT activity in treated L1210 cells; type: cell-based, murine; conditions: L1210, 10 μM at 48 hours (triamine analogues)
Excerpt: Spermidine/spermine N^1-acetyltransferase activity was based on quantitation of [^14C]-N^1-acetylspermidine formed by acetylation of SPD with [^14C] acetyl coenzyme A according to the method of Libby et al [Biochem. Pharmacol., Vol. 38, supra]. Cells treated with DENSPM were positive controls.

L1210 cells [2] = assay: Polyamine pool analysis in L1210 cells; type: cell-based, murine; conditions: for activity at 100 µM / activity at 500 µM: Mus musculus, L1210, 48 h, % of untreated control; for Analogue: intracellular amount
Description: The following guidelines were adopted for studying the impact of the analogues on polyamine pools (Table 2). The measurements were made after a 48-hour exposure to the analogue, and two different concentrations of analogue were evaluated in each case.
(§1) The cells were washed twice with cold RPMI-1640, and the pellet was treated with 0.6 N HClO4 (1 ml/10^7 cells). Polyamine contents of the perchloric acid extracts were quantitated by HPLC of the DANSYL derivatives [Bergeron et al, J. Med. Chem., Vol. 37, supra].

L1210 cells [3] = assay: L1210 growth inhibition, IC50 determination; type: cell-based, murine
Description: Murine L1210 leukemia cells (ATCC CCL 219) were maintained in logarithmic growth in RPMI-1640 medium containing 10% fetal calf serum or a semi-synthetic equivalent, NuSerum, 2% HEPES-MOPS buffer and 1 mM aminoguanidine.

[4] = tested on: polyamine transport apparatus; assay: Competitive uptake determination: inhibition of [3H]spermidine transport into L1210 cells; type: cell-based, murine; conditions: analogue inhibition of spermidine transport
Description: The ability of the norspermidines, spermidines, homospermidines, 4,5- and 5,5-triamines to compete with radiolabeled SPD for uptake was evaluated (Table 1). The general trend is that the terminally alkylated triamines have higher Ki values than the unalkylated triamines and are thus less easily taken up by the cell. […] This is not completely true with the norspermidines and the 5,5 triamines. The relationship holds with methyl and ethyl but not for the propyl of the latter two systems. Finally, the number of methylenes separating the amines plays a role in determining polyamine uptake properties. In general the effectiveness with which the analogues compete for uptake is spermidines≈homospermidines>4,5 triamines>5,5 triamines>norspermidine.
The polyamine derivatives were studied for their ability to compete with [^3H]-SPD for uptake into L1210 cells [Bergeron et al, J. Med. Chem., Vol. 37, supra]. Lineweaver-Burk plots indicated a simple competitive inhibition with respect to SPD.

L1210 cells [5] = assay: Metabolic transformation of polyamine analogues by L1210 cells; type: in vitro ADME, murine; conditions: 48 hours
Description: as §1

[6] = tested on: S-adenosylmethionine decarboxylase (AdoMetDC); assay: AdoMetDC activity in treated L1210 cells; type: cell-based, murine; conditions: L1210, 1 μM at 6 hours
Description: (§2) On the basis of these studies, it was elected to evaluate the impact of the triamines on ODC and AdoMetDC at 4 and 6 hours, respectively.
(§3) ODC and AdoMetDC activities were determined as ^14CO2 released from [^14C]-carboxyl-labeled L-ornithine [Seely et al, “Ornithine Decarboxylase (Mouse Kidney),” Methods Enzymol., Vol. 94, pages 158-161 (1983)] or S-adenosyl-L-methionine [Pegg et al, “S-Adenosylmethionine Decarboxylase (Rat Liver),” Methods Enzymol., Vol. 94, pages 234-239 (1983)], respectively. Included in each assay were untreated L1210 cells as controls, as well as cells treated with DEHSPM, a drug having a known reproducible effect on each enzyme, as positive controls.

[7] = tested on: ornithine decarboxylase (ODC); assay: ODC activity in treated L1210 cells; type: cell-based, murine; conditions: L1210, 1 μM at 4 hours
Description: as §2, §3

[8] = Mus musculus, L1210, 48 h, L1210, 48 hour exposure, read-out: IC50 48 hour
[9] = Mus musculus, L1210, 96 h, L1210, 96 hour exposure, read-out: IC50 96 hour

SMILES	SSAT activity, percent of untreated control [1]	activity at 100 µM (L1210 cells [2]; 100 μM, read-out: Put) [%]	activity at 100 µM (L1210 cells [2]; 100 μM, read-out: Spd) [%]	activity at 100 µM (L1210 cells [2]; 100 μM, read-out: Spm) [%]	activity at 500 µM (L1210 cells [2]; 500 μM, read-out: Put) [%]	activity at 500 µM (L1210 cells [2]; 500 μM, read-out: Spd) [%]	activity at 500 µM (L1210 cells [2]; 500 μM, read-out: Spm) [%]	Analogue (L1210 cells [2]; 100 μM, 48 hours) [nmol/10^6 cells]	Analogue (L1210 cells [2]; 500 μM, 48 hours) [nmol/10^6 cells]	IC50 (L1210 cells [3]; [8]) [µM]	IC50 (L1210 cells [3]; [9]) [µM]	Ki [4] [µM]	Parent drug as % of total drug in the cell (L1210 cells [5]; 100 μM analogue) [%]	Parent drug in L1210 cells (L1210 cells [5]; 100 μM analogue) [pmols/10^6]	AdoMetDC activity, percent of untreated control [6]	ODC activity, percent of untreated control [7]	also measured
CNCCCNCCCNC [DMNSPD, N^1,N^7-Dimethylnorspermidine Trihydrochloride]	250% of untreated control	0	9	58	0	6 to 15	< 50	5.00	5.51	> 100	3.5 to 6	60	100	5000	41% of untreated control	17% of untreated control	N-Monodealkylation (result in words) (L1210 cells [5]; 100 μM analogue): no N-demethylation
CNCCCCNCCCNC [DMSPD, N^1,N^8-Dimethylspermidine Trihydrochloride]	270% of untreated control	0	5	58	0	0	54	4.96	4.89	> 100	1.5 to 1.8	5.1	100	5000	68% of untreated control		N-Monodealkylation (result in words) (L1210 cells [5]; 100 μM analogue): no N-demethylation; ODC activity, percent of untreated control ([7]; Trihydrochloride): 22% of untreated control
CCCNCCCCCNCCCCNCCC [DP(4,5), 4,9,15-Triazaoctadecane Trihydrochloride]	80% of untreated control	0	40	119	0	31	121	1.40	2.42	~100	< 2	75	69.7	1325	86% of untreated control	83% of untreated control	IC50 (L1210 cells [3]; L1210, 96 hour exposure, Trihydrochloride, read-out: IC50 96 hour): 1 to 1.4 µM; Elaboration to tetraamine (result in words) (L1210 cells [5]; 100 μM analogue): no elaboration of N-Monoalkyl [5,4]
CCCNCCCCCNCCCCCNCCC [DP(5,5), 4,10,16-Triazanonadecane Trihydrochloride]	90% of untreated control	59	73	97	51	69	103	0.86	1.33	> 100	6	87			123% of untreated control	73% of untreated control	PUT reduced by (L1210 cells [2]; 500 μM, 48 hours): 50%; SPD reduced by (L1210 cells [2]; 500 μM, 48 hours): 30%; Parent drug as % of total drug in the cell (L1210 cells [5]; 500 μM analogue): 100%; Parent drug in L1210 cells (L1210 cells [5]; 500 μM analogue): 1300 pmols/10^6; N-Monodealkylation (result in words) (L1210 cells [5]; 500 μM analogue, Trihydrochloride): no metabolic products were found; N-Monodealkylation (result in words) (L1210 cells [5]; 500 μM analogue, listed as DP-[6,5], Trihydrochloride): no N-depropylation
CCCNCCCCNCCCCNCCC [DPHSPD, N^1,N^9-Dipropylhomospermidine Trihydrochloride]	420% of untreated control	0	19	144	0	7	111	3.12	3.68	> 100	6	67			123% of untreated control	86% of untreated control	Elaboration to tetraamine (result in words) (L1210 cells [5]; 500 μM analogue): elaboration of N-Monoalkyl [4,4]; Parent drug as % of total drug in the cell (L1210 cells [5]; 500 μM analogue): 87.7%; Parent drug in L1210 cells (L1210 cells [5]; 500 μM analogue): 3149 pmols/10^6
CCCNCCCNCCCNCCC [DPNSPD, N^1,N^7-Dipropylnorspermidine Trihydrochloride]	220% of untreated control	70	76	96	68	71	102	0.49	1.24	> 100	60	125	57.7	404	99% of untreated control	100% of untreated control	
CCNCCCNCCCCN [MESPD(N1), N^1-Ethylspermidine Trihydrochloride]	430% of untreated control	0	25	80	0	14	53	4.20	4.73	> 100	3 to 5	8.6	96.3	3946	58% of untreated control	10 (10) percent of untreated control	
